Experiments:
Experiment in all cases: normalised viability (% of control), CellTiter-Blue; higher = more viable cells (about 100 = DMSO control)
Settings in all cases: incubation time: 72 h
CAL-148 = test system: CAL-148
Description: (§1)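 DSRT, CellTiter-Blue viability, 72 h incubation. Signal is normalised to DMSO and benzethonium chloride controls. Value is the normalised response at dose 6.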

CAL-51 = test system: CAL-51
Description: as §1

CAL-85-1 = test system: CAL-85-1
Description: as §1

DU-4475 = test system: DU-4475
Description: as §1

HDQ-P1 = test system: HDQ-P1
Description: as §1

MDA-MB-453 = test system: MDA-MB-453
Description: as §1

**Q.** Which normalised viability (CAL-148) does the source give for `COc1ccc(S(=O)(=O)Nc2cccnc2Nc2ccc(O)cc2)cc1` [ABT-751] (300 nM) here?
**A.** 98.6%

**Q.** And the normalised viability (CAL-51)?
**A.** 94.3%

**Q.** And the normalised viability (CAL-85-1)?
**A.** 58.7%

**Q.** And the normalised viability (DU-4475)?
**A.** 80.7%

**Q.** And the normalised viability (HDQ-P1)?
**A.** 55.8%

**Q.** What about the normalised viability (MDA-MB-453) of the same compound?
**A.** 39.5%

**Q.** With `Cc1cc(Nc2nc(N[C@@H](C)c3ncc(F)cn3)ncc2Cl)[nH]n1` [AZD1480] (30 nM) as the compound, how does the normalised viability (CAL-148) read?
**A.** 103%

**Q.** What about the normalised viability (CAL-51) of the same compound?
**A.** 113%

**Q.** And the normalised viability (CAL-85-1)?
**A.** 91.3%

**Q.** And the normalised viability (DU-4475)?
**A.** 109%

**Q.** And the normalised viability (HDQ-P1)?
**A.** 78.1%

**Q.** And the normalised viability (MDA-MB-453)?
**A.** 117%

**Q.** Which results are given for `CNC(=O)c1ccccc1Sc1ccc2c(/C=C/c3ccccn3)n[nH]c2c1` [Axitinib] (300 nM)?
**A.** normalised viability (CAL-148): 94%; normalised viability (CAL-51): 96.1%; normalised viability (CAL-85-1): 83.6%; normalised viability (DU-4475): 103%; normalised viability (HDQ-P1): 40.1%; normalised viability (MDA-MB-453): 96.8%

**Q.** Which normalised viability (CAL-148) does the source give for `CC(O)(CS(=O)(=O)c1ccc(F)cc1)C(=O)Nc1ccc(C#N)c(C(F)(F)F)c1` (configuration not stated) [Bicalutamide] (300 nM) here?
**A.** 107%

**Q.** And the normalised viability (CAL-51)?
**A.** 108%

**Q.** What about the normalised viability (CAL-85-1) of the same compound?
**A.** 95%

**Q.** What about the normalised viability (DU-4475) of the same compound?
**A.** 93.6%

**Q.** And the normalised viability (HDQ-P1)?
**A.** 55%

**Q.** And the normalised viability (MDA-MB-453)?
**A.** 110%

**Q.** What does the source list for `CCNC(=O)CCC/C=C\C[C@@H]1[C@@H](/C=C/[C@@H](O)CCc2ccccc2)[C@H](O)C[C@@H]1O` [Bimatoprost] (165 nM)?
**A.** normalised viability (CAL-148): 94.6%; normalised viability (CAL-51): 116%; normalised viability (CAL-85-1): 96.4%; normalised viability (DU-4475): 97.6%; normalised viability (HDQ-P1): 81.4%; normalised viability (MDA-MB-453): 102%

**Q.** How did the normalised viability (CAL-148) turn out when `COc1cc(Nc2c(C#N)cnc3cc(OCCCN4CCN(C)CC4)c(OC)cc23)c(Cl)cc1Cl` [Bosutinib] (300 nM) was run?
**A.** 82.2%

**Q.** And the normalised viability (CAL-51)?
**A.** 117%

**Q.** And the normalised viability (CAL-85-1)?
**A.** 108%

**Q.** And the normalised viability (DU-4475)?
**A.** 99.7%

**Q.** And the normalised viability (HDQ-P1)?
**A.** 68.5%

**Q.** What about the normalised viability (MDA-MB-453) of the same compound?
**A.** 88.2%

**Q.** `CCN(CC)CCCC(C)Nc1ccnc2cc(Cl)ccc12` (configuration not stated) [Chloroquine] (29.7 nM) was tested. Which normalised viability (CAL-148) did it give?
**A.** 89.9%

**Q.** And the normalised viability (CAL-51)?
**A.** 88.5%

**Q.** What about the normalised viability (CAL-85-1) of the same compound?
**A.** 92.7%

**Q.** And the normalised viability (DU-4475)?
**A.** 116%

**Q.** What about the normalised viability (HDQ-P1) of the same compound?
**A.** 123%

**Q.** What about the normalised viability (MDA-MB-453) of the same compound?
**A.** 98.8%

**Q.** Which normalised viability (CAL-148) does the source give for `Cn1cc(C2=C(c3cn(C4CCN(Cc5ccccn5)CC4)c4ccccc34)C(=O)NC2=O)c2ccccc21` [Enzastaurin] (300 nM) here?
**A.** 79.2%

**Q.** What about the normalised viability (CAL-51) of the same compound?
**A.** 92.3%

**Q.** And the normalised viability (CAL-85-1)?
**A.** 90.2%

**Q.** What about the normalised viability (DU-4475) of the same compound?
**A.** 77.5%

**Q.** What about the normalised viability (HDQ-P1) of the same compound?
**A.** 45.9%

**Q.** What about the normalised viability (MDA-MB-453) of the same compound?
**A.** 80.6%

**Q.** What does the source list for `CC(C)(C)NC(=O)[C@H]1CC[C@H]2[C@@H]3CC[C@H]4NC(=O)C=C[C@]4(C)[C@H]3CC[C@]12C` [Finasteride] (300 nM)?
**A.** normalised viability (CAL-148): 106%; normalised viability (CAL-51): 105%; normalised viability (CAL-85-1): 97.8%; normalised viability (DU-4475): 96.4%; normalised viability (HDQ-P1): 109%; normalised viability (MDA-MB-453): 112%

**Q.** How did the normalised viability (CAL-148) turn out when `Nc1ccn([C@@H]2O[C@H](CO)[C@@H](O)C2(F)F)c(=O)n1` [Gemcitabine] (30 nM) was run?
**A.** 42.1%

**Q.** What about the normalised viability (CAL-51) of the same compound?
**A.** 42.9%

**Q.** What about the normalised viability (CAL-85-1) of the same compound?
**A.** 58.7%

**Q.** And the normalised viability (DU-4475)?
**A.** 72.8%

**Q.** And the normalised viability (HDQ-P1)?
**A.** 74%

**Q.** What about the normalised viability (MDA-MB-453) of the same compound?
**A.** 60.2%

**Q.** Which normalised viability (CAL-148) does the source give for `CC(C)C[C@H](NC(=O)[C@@H](COC(C)(C)C)NC(=O)[C@H](Cc1ccc(O)cc1)NC(=O)[C@H](CO)NC(=O)[C@H](Cc1c[nH]c2ccccc12)NC(=O)[C@H](Cc1cnc[nH]1)NC(=O)[C@@H]1CCC(=O)N1)C(=O)N[C@@H](CCCNC(=N)N)C(=O)N1CCC[C@H]1C(=O)NNC(N)=O` [Goserelin] (300 nM) here?
**A.** 104%

**Q.** And the normalised viability (CAL-51)?
**A.** 108%

**Q.** What about the normalised viability (CAL-85-1) of the same compound?
**A.** 99.7%

**Q.** What about the normalised viability (DU-4475) of the same compound?
**A.** 106%

**Q.** And the normalised viability (HDQ-P1)?
**A.** 91.4%

**Q.** And the normalised viability (MDA-MB-453)?
**A.** 106%

**Q.** Which normalised viability (CAL-148) does the source give for `CC(=O)[C@]1(O)Cc2c(O)c3c(c(O)c2[C@@H](O[C@H]2C[C@H](N)[C@H](O)[C@H](C)O2)C1)C(=O)c1ccccc1C3=O` [Idarubicin] (30 nM) here?
**A.** 40.7%

**Q.** And the normalised viability (CAL-51)?
**A.** 31.1%

**Q.** What about the normalised viability (CAL-85-1) of the same compound?
**A.** 89.9%

**Q.** What about the normalised viability (DU-4475) of the same compound?
**A.** 50%

**Q.** And the normalised viability (HDQ-P1)?
**A.** 83.6%

**Q.** And the normalised viability (MDA-MB-453)?
**A.** 101%

Reference: the supplement of paper PMC4862054
